Assay: Elution of paclitaxel from coated balloon catheter assemblies in porcine serum elution medium (HPLC)
Assay type: physicochemical
Details: contrast media vs saline
Procedure: The rate of paclitaxel elution in each of the paclitaxel-coated balloon catheter assemblies described in Example 1 is analyzed in a porcine serum at 37° C. The coated balloon catheter assemblies are then divided into two groups, A and B. The coated balloon catheter assembly in Group A is designated to deliver a saline solution through the apertures of the outer balloon, while the coated balloon catheter assembly in Group B is designated to deliver a contrast media through the apertures of the outer balloon. The contrast media used is ISOVUE®-370 of Bracco Diagnostics (Princeton, N.J.), which included 370 mgl/mL of Iopamidol.
The coated balloon catheter assemblies, expanded to 4 ATM, is contacted with the porcine serum elution medium and continuously stirred for a desired period of time (e.g., at least one hour) selected to gradually dissolve the paclitaxel at a rate similar to dissolution in blood. […] The amount of the paclitaxel dissolved is measured as a function of time by monitoring with High Performance Liquid Chromatography (HPLC) the porcine serum elution medium after contact with the coated balloon catheter assembly. […] The outer balloon of each of the coated balloon catheter assemblies is then detached from the assembly and analyzed using HPCL to measure the amount of paclitaxel left on the coated outer balloon after being in contact with the elution medium for 60 minutes.

lower amount of PTX on the outer balloon than Group A balloon catheters (after 60 minutes): ≤ 15% | PTX elutes faster than Group A balloon catheters (time period of 2 to 10 minutes): 2-3 times
SMILES: CC(=O)O[C@H]1C(=O)[C@@]2(C)[C@H]([C@H](OC(=O)c3ccccc3)[C@]3(O)C[C@H](OC(=O)[C@H](O)[C@@H](NC(=O)c4ccccc4)c4ccccc4)C(C)=C1C3(C)C)[C@]1(OC(C)=O)CO[C@@H]1C[C@@H]2O [paclitaxel]

— patent US8740843B2, “Coated balloon catheter” (Cook Medical Technologies LLC, priority 2009, dated 2014)
